Test results reported in patent US12139520B2 (priority 2020, dated 2024).
Numbered stars: 1 amine (or outer) side, 2 acyl side, 3 side chain; on linkers, the order of the positions; unused ones are H or OH. Bridge positions count the residues as written; N and C are the ends. Square brackets hold non-standard residues; d marks the D form. Side chains are listed from the residue outwards. Peptide text beside a SMILES is read from it. * marks the point of attachment. C20 diacid = O=C(O)CCCCCCCCCCCCCCCCCCC(=O)*; γGlu = O=C(O)[C@H](CCC(=O)[*:2])N[*:1]; Hyp = O=C(O)[C@@H]1C[C@@H](O)CN1; AEEA = NCCOCCOCC(=O)O

What was measured:
hAMY3 receptor = molecular target: T1, hAMY3 receptor (Homo sapiens, UniProt O60896+P30988); assay: cAMP assay for in vitro receptor activation, hAMY3-R; type: cell-based; conditions: cAMP assay, hAMY3 receptor; read-out: hAMY3R EC50
T1 sequence (P30988 25-474): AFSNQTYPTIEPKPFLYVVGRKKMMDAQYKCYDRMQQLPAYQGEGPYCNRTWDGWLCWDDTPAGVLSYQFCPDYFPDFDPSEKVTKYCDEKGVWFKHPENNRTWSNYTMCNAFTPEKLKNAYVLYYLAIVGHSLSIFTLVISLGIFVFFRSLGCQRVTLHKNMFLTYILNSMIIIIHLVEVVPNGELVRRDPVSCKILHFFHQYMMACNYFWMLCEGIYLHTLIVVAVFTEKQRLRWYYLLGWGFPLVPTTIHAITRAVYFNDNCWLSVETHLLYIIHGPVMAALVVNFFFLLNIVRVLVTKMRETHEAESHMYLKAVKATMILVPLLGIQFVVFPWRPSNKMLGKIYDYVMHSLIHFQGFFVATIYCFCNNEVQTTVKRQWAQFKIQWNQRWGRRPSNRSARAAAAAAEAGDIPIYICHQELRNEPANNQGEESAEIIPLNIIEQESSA
T1 sequence (O60896 24-148 partner): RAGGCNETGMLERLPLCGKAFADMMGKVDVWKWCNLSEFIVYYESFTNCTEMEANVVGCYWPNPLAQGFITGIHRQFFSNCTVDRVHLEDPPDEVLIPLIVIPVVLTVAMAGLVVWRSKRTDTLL
Procedure, shortened: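 Accumulated cAMP was detected by time-resolved FRET one hour after reagent addition. Beforehand, hAMY3-R-overexpressing monoclonal cells (2000/well, DPBS, 0.05% casein, 0.5 mM IBMX) received graded doses of compound for 30 min at room temperature; human amylin served as positive control.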

hAM1 receptor = hAM1 receptor (Homo sapiens, UniProt O60895+Q16602); assay: cAMP assay for in vitro receptor activation, hAM1-R; type: cell-based; conditions: cAMP assay, hAM1 receptor; read-out: hAM1R EC50
Procedure, shortened: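 Monoclonal stable hAM1-overexpressing cells, thawed from frozen stock; 8000 cells/well in DPBS + 0.05% casein + 0.5 mM IBMX; read-out cAMP.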

hAM1 receptor, sequence (Q16602 23-461): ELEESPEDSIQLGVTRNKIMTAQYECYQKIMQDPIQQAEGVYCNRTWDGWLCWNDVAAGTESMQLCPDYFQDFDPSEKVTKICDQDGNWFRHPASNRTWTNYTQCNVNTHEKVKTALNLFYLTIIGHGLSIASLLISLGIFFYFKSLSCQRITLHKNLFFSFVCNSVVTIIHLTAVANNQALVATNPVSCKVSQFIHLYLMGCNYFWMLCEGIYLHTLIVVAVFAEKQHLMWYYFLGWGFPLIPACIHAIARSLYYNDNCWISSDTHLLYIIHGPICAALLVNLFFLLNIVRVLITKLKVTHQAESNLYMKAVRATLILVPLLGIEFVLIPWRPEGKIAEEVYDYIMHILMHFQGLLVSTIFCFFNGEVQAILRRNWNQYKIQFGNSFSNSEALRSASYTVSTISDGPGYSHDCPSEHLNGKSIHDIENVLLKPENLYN
hAM1 receptor, sequence (O60895 43-175 partner): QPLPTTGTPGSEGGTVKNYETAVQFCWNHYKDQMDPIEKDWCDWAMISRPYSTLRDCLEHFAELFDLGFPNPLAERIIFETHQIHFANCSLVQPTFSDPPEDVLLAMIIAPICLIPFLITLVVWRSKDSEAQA

**Q.** For `CC[C@H](C)[C@H](NC(=O)[C@H](CCC(N)=O)NC(=O)[C@H](Cc1c[nH]cn1)NC(=O)[C@H](C)NC(=O)[C@H](CC(C)C)NC(=O)[C@H](CCCNC(=N)N)NC(=O)[C@H](CCC(N)=O)NC(=O)[C@@H](NC(=O)[C@@H](NC(=O)[C@@H]1CSSC[C@H](NC(=O)[C@H](CCCCN)NC(=O)CC[C@H](NC(=O)CCCCCCCCCCCCCCCCCCC(=O)O)C(=O)O)C(=O)N[C@@H](CC(N)=O)C(=O)N[C@@H]([C@@H](C)O)C(=O)N[C@@H](C)C(=O)N[C@@H]([C@@H](C)O)C(=O)N1)[C@@H](C)O)C(C)C)C(=O)N[C@@H](CCC(N)=O)C(=O)N[C@@H](CCC(N)=O)C(=O)N[C@@H](Cc1ccccc1)C(=O)N[C@H](C(=O)N[C@@H](CC(=O)O)C(=O)N[C@@H](CCCCN)C(=O)N[C@@H](CC(=O)O)C(=O)N[C@@H](CCCCN)C(=O)N[C@@H](CC(=O)O)C(=O)N[C@@H](CC(N)=O)C(=O)N[C@H](C(=O)N[C@@H](C)C(=O)N1CCC[C@H]1C(=O)N1CCC[C@H]1C(=O)N[C@H](C(=O)N[C@@H](CC(N)=O)C(=O)N[C@H](C(=O)NCC(=O)N[C@@H](CO)C(=O)N[C@@H](CC(N)=O)C(=O)NCC(=O)N1C[C@H](O)C[C@H]1C(N)=O)C(C)C)[C@@H](C)O)C(C)C)[C@@H](C)O` [compound 35] ({C20 diacid-γGlu}-KCNTATCTVQRLAHQIQQFTDKDKDNVAPPTNVGSNG[Hyp]-NH2; disulfide 2-7), which EC50 (hAMY3 receptor) is on record?
**A.** The EC50 was 0.009 nM.

**Q.** What about the EC50 (hAM1 receptor) of the same compound?
**A.** Its EC50 is greater than 5000 nM.

**Q.** Which results are given for `CC[C@H](C)[C@H](NC(=O)[C@H](CCC(N)=O)NC(=O)[C@H](Cc1c[nH]cn1)NC(=O)[C@H](C)NC(=O)[C@H](CC(C)C)NC(=O)[C@H](CCCNC(=N)N)NC(=O)[C@H](C)NC(=O)[C@@H](NC(=O)[C@@H](NC(=O)[C@@H]1CSSC[C@H](NC(=O)[C@H](CCCCN)NC(=O)CC[C@H](NC(=O)CCCCCCCCCCCCCCCCCCC(=O)O)C(=O)O)C(=O)N[C@@H](CC(N)=O)C(=O)N[C@@H]([C@@H](C)O)C(=O)N[C@@H](C)C(=O)N[C@@H]([C@@H](C)O)C(=O)N1)[C@@H](C)O)C(C)C)C(=O)N[C@@H](Cc1ccc(O)cc1)C(=O)N[C@@H](CCC(N)=O)C(=O)N[C@@H](Cc1ccccc1)C(=O)N[C@H](C(=O)N[C@@H](CC(=O)O)C(=O)N[C@@H](CCCCN)C(=O)N[C@@H](CC(=O)O)C(=O)N[C@@H](CCCCN)C(=O)N[C@@H](CC(=O)O)C(=O)N[C@@H](CC(N)=O)C(=O)N[C@H](C(=O)N[C@@H](C)C(=O)N1CCC[C@H]1C(=O)N1CCC[C@H]1C(=O)N[C@H](C(=O)N[C@@H](CC(N)=O)C(=O)N[C@H](C(=O)NCC(=O)N[C@@H](CO)C(=O)N[C@@H](CC(N)=O)C(=O)NCC(=O)N1C[C@H](O)C[C@H]1C(N)=O)C(C)C)[C@@H](C)O)C(C)C)[C@@H](C)O` [compound 37] ({C20 diacid-γGlu}-KCNTATCTVARLAHQIYQFTDKDKDNVAPPTNVGSNG[Hyp]-NH2; disulfide 2-7)?
**A.** EC50 (hAMY3 receptor): 0.01 nM; EC50 (hAM1 receptor): > 5000 nM

**Q.** Which results are given for `CC[C@H](C)[C@H](NC(=O)[C@H](CCC(N)=O)NC(=O)[C@H](Cc1c[nH]cn1)NC(=O)[C@H](C)NC(=O)[C@H](CC(C)C)NC(=O)[C@H](CCCNC(=N)N)NC(=O)[C@H](CC(N)=O)NC(=O)[C@@H](NC(=O)[C@@H](NC(=O)[C@@H]1CSSC[C@H](NC(=O)[C@H](CCCCN)NC(=O)CC[C@H](NC(=O)CCCCCCCCCCCCCCCCCCC(=O)O)C(=O)O)C(=O)N[C@@H](CC(N)=O)C(=O)N[C@@H]([C@@H](C)O)C(=O)N[C@@H](C)C(=O)N[C@@H]([C@@H](C)O)C(=O)N1)[C@@H](C)O)C(C)C)C(=O)N[C@@H](Cc1ccc(O)cc1)C(=O)N[C@@H](CCC(N)=O)C(=O)N[C@@H](Cc1ccccc1)C(=O)N[C@H](C(=O)N[C@@H](CC(=O)O)C(=O)N[C@@H](CCCCN)C(=O)N[C@@H](CC(=O)O)C(=O)N[C@@H](CCCCN)C(=O)N[C@@H](CC(=O)O)C(=O)N[C@@H](CC(N)=O)C(=O)N[C@H](C(=O)N[C@@H](C)C(=O)N1CCC[C@H]1C(=O)N1CCC[C@H]1C(=O)N[C@H](C(=O)N[C@@H](CC(N)=O)C(=O)N[C@H](C(=O)NCC(=O)N[C@@H](CO)C(=O)N[C@@H](CC(N)=O)C(=O)NCC(=O)N1C[C@H](O)C[C@H]1C(N)=O)C(C)C)[C@@H](C)O)C(C)C)[C@@H](C)O` [compound 38] ({C20 diacid-γGlu}-KCNTATCTVNRLAHQIYQFTDKDKDNVAPPTNVGSNG[Hyp]-NH2; disulfide 2-7)?
**A.** EC50 (hAMY3 receptor): 0.01 nM; EC50 (hAM1 receptor): > 5000 nM

**Q.** With `CC[C@H](C)[C@H](NC(=O)[C@H](CCC(N)=O)NC(=O)[C@H](Cc1c[nH]cn1)NC(=O)[C@H](C)NC(=O)[C@H](CC(C)C)NC(=O)[C@H](CCCNC(=N)N)NC(=O)[C@H](CCC(N)=O)NC(=O)[C@@H](NC(=O)[C@@H](NC(=O)[C@@H]1CSSC[C@H](NC(=O)[C@H](CCCNC(=N)N)NC(=O)CC[C@H](NC(=O)CCCCCCCCCCCCCCCCCCC(=O)O)C(=O)O)C(=O)N[C@@H](CC(N)=O)C(=O)N[C@@H]([C@@H](C)O)C(=O)N[C@@H](C)C(=O)N[C@@H]([C@@H](C)O)C(=O)N1)[C@@H](C)O)C(C)C)C(=O)N[C@@H](Cc1ccc(O)cc1)C(=O)N[C@@H](CCC(N)=O)C(=O)N[C@@H](Cc1ccccc1)C(=O)N[C@H](C(=O)N[C@@H](CC(=O)O)C(=O)N[C@@H](CCCCN)C(=O)N[C@@H](CC(=O)O)C(=O)N[C@@H](CCCCN)C(=O)N[C@@H](CC(=O)O)C(=O)N[C@@H](CC(N)=O)C(=O)N[C@H](C(=O)N[C@@H](C)C(=O)N1CCC[C@H]1C(=O)N1CCC[C@H]1C(=O)N[C@H](C(=O)N[C@@H](CC(N)=O)C(=O)N[C@H](C(=O)NCC(=O)N[C@@H](CO)C(=O)N[C@@H](CC(N)=O)C(=O)NCC(=O)N1C[C@H](O)C[C@H]1C(N)=O)C(C)C)[C@@H](C)O)C(C)C)[C@@H](C)O` [compound 39] ({C20 diacid-γGlu}-RCNTATCTVQRLAHQIYQFTDKDKDNVAPPTNVGSNG[Hyp]-NH2; disulfide 2-7) as the compound, how does the EC50 (hAMY3 receptor) read?
**A.** Its EC50 is 0.01 nM.

**Q.** And the EC50 (hAM1 receptor)?
**A.** Its EC50 is greater than 5000 nM.

**Q.** Which EC50 (hAMY3 receptor) does the source give for `CC[C@H](C)[C@H](NC(=O)[C@H](CCC(N)=O)NC(=O)[C@H](CCC(=O)O)NC(=O)[C@H](C)NC(=O)[C@H](CC(C)C)NC(=O)[C@H](CCCNC(=N)N)NC(=O)[C@H](CCC(N)=O)NC(=O)[C@@H](NC(=O)[C@@H](NC(=O)[C@@H]1CSSC[C@H](NC(=O)[C@@H](N)CCCCN)C(=O)N[C@@H](CC(N)=O)C(=O)N[C@@H]([C@@H](C)O)C(=O)N[C@@H](C)C(=O)N[C@@H]([C@@H](C)O)C(=O)N1)[C@@H](C)O)C(C)C)C(=O)N[C@@H](Cc1ccc(O)cc1)C(=O)N[C@@H](CCC(N)=O)C(=O)N[C@@H](Cc1ccccc1)C(=O)N[C@H](C(=O)N[C@@H](CC(=O)O)C(=O)N[C@@H](CCCCN)C(=O)N[C@@H](CC(=O)O)C(=O)N[C@@H](CCCCN)C(=O)N[C@@H](CCCCNC(=O)COCCOCCNC(=O)COCCOCCNC(=O)CC[C@H](NC(=O)CCCCCCCCCCCCCCCCCCC(=O)O)C(=O)O)C(=O)N[C@@H](CC(N)=O)C(=O)N[C@H](C(=O)N[C@@H](C)C(=O)N1CCC[C@H]1C(=O)N1CCC[C@H]1C(=O)N[C@H](C(=O)N[C@@H](CC(N)=O)C(=O)N[C@H](C(=O)NCC(=O)N[C@@H](CO)C(=O)N[C@@H](CC(N)=O)C(=O)NCC(=O)N1C[C@H](O)C[C@H]1C(N)=O)C(C)C)[C@@H](C)O)C(C)C)[C@@H](C)O` [compound 40] (H-KCNTATCTVQRLAEQIYQFTDKDKK([AEEA-AEEA-γGlu-C20 diacid])NVAPPTNVGSNG[Hyp]-NH2; disulfide 2-7; N-terminus assumed) here?
**A.** Its EC50 is 0.01 nM.

**Q.** And the EC50 (hAM1 receptor)?
**A.** Its EC50 is greater than 5000 nM.

**Q.** `CC[C@H](C)[C@H](NC(=O)[C@H](CCC(N)=O)NC(=O)[C@H](CCC(=O)O)NC(=O)[C@H](C)NC(=O)[C@H](CC(C)C)NC(=O)[C@H](CCCNC(=N)N)NC(=O)[C@H](CCC(N)=O)NC(=O)[C@@H](NC(=O)[C@@H](NC(=O)[C@@H]1CSSC[C@H](NC(=O)[C@@H](N)CCCCN)C(=O)N[C@@H](CC(N)=O)C(=O)N[C@@H]([C@@H](C)O)C(=O)N[C@@H](C)C(=O)N[C@@H]([C@@H](C)O)C(=O)N1)[C@@H](C)O)C(C)C)C(=O)N[C@@H](Cc1ccc(O)cc1)C(=O)N[C@@H](CCC(N)=O)C(=O)N[C@@H](Cc1ccccc1)C(=O)N[C@H](C(=O)N[C@@H](CC(=O)O)C(=O)N[C@@H](CCCCN)C(=O)N[C@@H](CC(=O)O)C(=O)N[C@@H](CCCCN)C(=O)N[C@@H](CC(=O)O)C(=O)N[C@@H](CCCCNC(=O)COCCOCCNC(=O)COCCOCCNC(=O)CC[C@H](NC(=O)CCCCCCCCCCCCCCCCCCC(=O)O)C(=O)O)C(=O)N[C@H](C(=O)N[C@@H](C)C(=O)N1CCC[C@H]1C(=O)N1CCC[C@H]1C(=O)N[C@H](C(=O)N[C@@H](CC(N)=O)C(=O)N[C@H](C(=O)NCC(=O)N[C@@H](CO)C(=O)N[C@@H](CC(N)=O)C(=O)NCC(=O)N1C[C@H](O)C[C@H]1C(N)=O)C(C)C)[C@@H](C)O)C(C)C)[C@@H](C)O` [compound 41] (H-KCNTATCTVQRLAEQIYQFTDKDKDK([AEEA-AEEA-γGlu-C20 diacid])VAPPTNVGSNG[Hyp]-NH2; disulfide 2-7; N-terminus assumed) was tested. Which EC50 (hAMY3 receptor) did it give?
**A.** Its EC50 is 0.01 nM.

**Q.** And the EC50 (hAM1 receptor)?
**A.** The EC50 was greater than 5000 nM.
